Assay results taken from patent US20090221559A1 (priority 2005, published 2009).
Like-named read-outs stand apart in the source and are kept apart here.

How the values were obtained:
[1] = molecular target: T1, HCV NS5B polymerase (His-tagged, C-terminal 21 amino acid deleted NS5B, HC-J4) (Hepatitis C virus genotype 1b, UniProt O92972); assay: NS5b polymerase assay (biochemical RdRp assay, 3H-GTP incorporation, SPA beads); set-up: species or system HCV genotype 1b
T1 construct: The cDNA encoding NS5B amino acid 1-570 (HC-J4, genotype 1b); His tag (His6, from pET-21b) (C); made in house; host or cells: E. coli BL21 (DE3)
T1 sequence (O92972 2417-3000, looked up, stated change not applied): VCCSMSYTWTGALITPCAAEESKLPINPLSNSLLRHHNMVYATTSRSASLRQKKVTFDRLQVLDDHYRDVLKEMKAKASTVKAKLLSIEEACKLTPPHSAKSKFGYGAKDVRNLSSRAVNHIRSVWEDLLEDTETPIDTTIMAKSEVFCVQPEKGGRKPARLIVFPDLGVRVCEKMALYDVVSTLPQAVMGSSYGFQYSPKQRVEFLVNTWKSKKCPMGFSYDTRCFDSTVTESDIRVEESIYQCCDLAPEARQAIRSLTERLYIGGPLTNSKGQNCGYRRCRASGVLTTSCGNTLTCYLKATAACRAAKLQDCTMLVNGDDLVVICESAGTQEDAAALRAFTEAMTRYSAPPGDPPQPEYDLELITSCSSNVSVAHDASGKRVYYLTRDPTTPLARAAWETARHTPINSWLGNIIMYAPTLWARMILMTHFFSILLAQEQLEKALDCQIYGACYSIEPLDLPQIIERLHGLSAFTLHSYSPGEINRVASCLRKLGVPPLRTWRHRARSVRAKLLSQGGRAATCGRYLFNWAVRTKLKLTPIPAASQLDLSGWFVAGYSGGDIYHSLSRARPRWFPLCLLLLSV
How it was run: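 His-tagged C-terminal-21-aa-deleted NS5B (genotype 1b, HC-J4) at 200 nM was preincubated 15 min at RT with compound on 5′-biotinylated oligo(rG13)/poly(rC) template/primer before NTPs. Reaction with 600 nM GTP plus 0.1 μCi 3H-GTP and 5 mM MgCl2 in Tris pH 7.5 ran 2 h at 25 °C. Stopped with EDTA/SPA beads for incorporation counting.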

[2] = test system: HCV replicon RNA replication in Huh-7 luc/neo (Huh-Luc) cells; assay: HCV replicon assay (stable replicon cell reporter assay, luciferase read-out); format: cell-based, HCV type 1b
How it was run: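 Huh-7 cells stably carry a bicistronic HCV 1b NS3-NS5B subgenomic replicon with firefly luciferase and neo markers. Cells were plated with compound across a concentration range and incubated three days. Replication was measured as luciferase activity to give dose-response curves.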

[3] = NS5B Polymerase Assay IC50 (μM)
[4] = Hepatitis C virus, Huh-7, 72 h, read-out: Replicon Assay EC50 (μM), Huh-Luc cells, incubation of three days, luciferase activity
[5] = NS5B Polymerase Assay IC50, 200 nM enzyme, 3H-GTP incorporation, 2 h at 25° C.
[6] = Hepatitis C virus, Huh-7, 72 h, read-out: Replicon Assay EC50, Huh-Luc cells, three days incubation, luciferase activity

SMILES | melting point [°C] | IC50 [1, 5] [µM] | other results
CC(=O)N1c2ccccc2NC2=C(C(=O)CC(C)(C)C2)C1/C(Cl)=C/c1ccccc1 (stereo not drawn) | 258 | – | –
CC1(C)CC(=O)C2=C(C1)Nc1cccc(CO)c1NC2c1ccc(Cl)cc1Cl (stereo not drawn) | > 260 | – | –
CC(=O)N1c2c(cccc2C(=O)O)NC2=C(C(=O)CC(C)(C)C2)C1c1ccc(Cl)cc1Cl (stereo not drawn) | > 260 | – | –
CC1(C)CC(=O)C2=C(C1)Nc1cc(C(=O)O)ccc1NC2c1ccc(Cl)cc1Cl (stereo not drawn) | > 250 | – | –
CC(=O)N1c2c(CNCCc3ccncc3)cccc2NC2=C(C(=O)CC(C)(C)C2)C1c1ccc(Cl)cc1Cl (stereo not drawn) | 212 | – | –
CC(=O)N1c2c(cccc2C(=O)NCCCN(C)C)NC2=C(C(=O)CC(C)(C)C2)C1c1ccc(Cl)cc1Cl (stereo not drawn) | 226 | – | –
CC1(C)CC(=O)C2=C(C1)Nc1cc(CO)ccc1NC2c1ccc(Cl)cc1Cl (stereo not drawn) | 160 | – | –
CC(=O)N1c2c(CNCCCN(C)C)cccc2NC2=C(C(=O)CC(C)(C)C2)C1c1ccc(Cl)cc1Cl (stereo not drawn) | 258 | – | –
C=CCCC(=O)N1c2ccccc2NC2=C(C(=O)CC(C)(C)C2)C1c1ccc(Cl)cc1Cl (stereo not drawn) | 200 | – | –
CC1(C)CC(=O)C2=C(C1)Nc1ccc(CO)cc1NC2c1ccc(Cl)cc1Cl (stereo not drawn) | 168 | – | –
CC(=O)N1c2ccc(CCCN)cc2NC2=C(C(=O)CC(C)(C)C2)C1c1ccc(Cl)cc1Cl (stereo not drawn) | 242 | – | –
CCCN(C)Cc1cccc2c1N(C(C)=O)C(c1ccc(Cl)cc1Cl)C1=C(CC(C)(C)CC1=O)N2 (stereo not drawn) | > 260 | – | –
CC1(C)CC(=O)C2=C(C1)Nc1ccccc1NC2c1coc2c(Cl)cc(Cl)cc2c1=O (stereo not drawn) [compound 502] | – | – | IC50 [1, 3]: > 42.7 µM; EC50 [2, 4]: 13.2 µM
CCCCC(=O)N1c2ccccc2NC2=C(C(=O)CC(C)(C)C2)C1c1ccc2c(c1)OCO2 (stereo not drawn) [compound 265] | – | > 42.7 | EC50 [2, 6]: 11.3 µM
O=C1CC(c2ccccc2OCc2ccccc2)CC2=C1C(c1cccc(OCc3ccccc3)c1)Nc1ccccc1N2 (single isomer, unassigned) [compound 418, 3-(2-Benzyloxyphenyl)-11-(3-benzyloxyphenyl)-2,3,4,5,10,11-hexahydro-dibenzo[b,e][1,4]diazepin-1-one] | – | – | IC50 ([1]; read-out: NS5B Polymerase Assay IC50): > 42.7 µM; EC50 ([2]; read-out: Replicon Assay EC50, Huh-Luc cells, incubation of three days, luciferase activity): 2.16 µM
CCC(=O)N1c2ccccc2NC2=C(C(=O)CC(C)(C)C2)C1c1ccc(OC)cc1OC (stereo not drawn) [compound 75] | – | > 42.7 | EC50 [2, 6]: 20.5 µM
CCCCC(=O)N1c2ccccc2NC2=C(C(=O)CC(C)(C)C2)C1c1ccc(OC)cc1OC (stereo not drawn) [compound 1] | – | > 42.7 | EC50 [2, 6]: 8.53 µM
CC(=O)N1c2ccccc2NC2=C(C(=O)CC(C)(C)C2)C1c1ccccc1OCc1ccccc1 (stereo not drawn) [compound 44] | – | > 42.7 | EC50 ([2]; read-out: Replicon Assay EC50, Huh-Luc cells, three days incubation, luciferase activity): 9.54 µM
CC1(C)CC(=O)C2=C(C1)Nc1cc(C(=O)c3ccccc3)ccc1NC2c1ccccc1Cl (stereo not drawn) [compound 463] | – | – | IC50 [1, 3]: > 33.3 µM; EC50 [2, 4]: 7.43 µM
CC(=O)N1c2ccccc2NC2=C(C(=O)CC(C)(C)C2)C1c1cccc([N+](=O)[O-])c1 (stereo not drawn) [compound 103] | – | > 42.7 | EC50 [2, 6]: > 32 µM
COc1cccc(C2Nc3ccccc3NC3=C2C(=O)CC(c2ccccc2)C3)c1 (stereo not drawn) [compound 330] | – | – | IC50 [1, 3]: > 42.7 µM; EC50 [2, 4]: 23.2 µM
COc1c(Cl)cc(Cl)cc1C1C2=C(CC(C)(C)CC2=O)Nc2ccccc2N1C(=O)Cc1ccccc1 (stereo not drawn) [compound 15] | – | > 42.7 | EC50 [2, 6]: 3.09 µM
CCCCCC(=O)N1c2ccccc2NC2=C(C(=O)CC(c3ccc(C)cc3)C2)C1c1ccccc1Cl (mixture of isomers) [compound 182] | – | – | IC50 ([1]; 200 nM enzyme, 3H-GTP incorporation, 2 h at 25° C., read-out: NS5B Polymerase Assay IC50): > 42.7 µM; EC50 ([2]; Huh-Luc cells, three days incubation, luciferase activity, read-out: Replicon Assay EC50): 1.82 µM
O=C1CC(c2ccccc2)CC2=C1C(c1cccc(OCc3ccccc3)c1)Nc1ccccc1N2 (stereo not drawn) [compound 373] | – | – | IC50 [1, 3]: > 42.7 µM; EC50 [2, 4]: 9.42 µM
CN(C)c1ccc(C2C3=C(CC(C)(C)CC3=O)Nc3ccccc3N2C(=O)Cc2ccc(Cl)cc2)cc1 (stereo not drawn) [compound 8] | – | > 42.7 | EC50 [2, 6]: 5.65 µM
CC(C)CC(=O)N1c2ccccc2NC2=C(C(=O)CC(C)(C)C2)C1c1cccnc1 (stereo not drawn) [compound 270] | – | > 33.3 | EC50 [2, 6]: 25.5 µM
CC1(C)CC(=O)C2=C(C1)Nc1ccccc1N(C(=O)Cc1ccc(Cl)cc1)C2c1ccco1 (stereo not drawn) [compound 253] | – | > 42.7 | EC50 [2, 6]: 8.7 µM
